Test results taken from PMC5029699, “Landscape of activating cancer mutations in FGFR kinases and their differential responses to inhibitors in clinical use” (Oncotarget, 2016).

Experiments:
[1] = system: cell line with introduced FGFR3 V555M mutation; set-up: method as in PMID 26097890; details: cell line originally responding to both drugs; cited from earlier work
[2] = system: JHUEM-2 cancer cell line, FGFR2 mutation corresponding to N540K; set-up: method as in PMID 23908597; details: cited from earlier work
[3] = system: NIH3T3 cells expressing FGFR3 K650E; details: K650E NIH3T3 cells vs FGFR3TACC3-fusion cells, in words
Procedure: (§1) For the cell viability assay in the presence of FGFR inhibitors, NIH3T3 cells transfected with the stated FGFR3 variants were plated in 96-well plates, 1000 cells per well. Twenty-four hours later the cells were treated with various concentrations of kinase inhibitor. Forty-eight hours later, fresh inhibitor was added and the cells incubated for 72 hours. Cell viability was measured through the addition of CellTiter-Glo (Promega) and luminenscence measured with a standard luminometer plate reader. Data were normalised and fitted to a log(inhibitor) vs. response curve (three parameters) with GraphPad Prism.

[4] = system: NIH3T3 cells expressing FGFR3 N540K; details: N540K NIH3T3 cells vs FGFR3TACC3-fusion cells, in words
Procedure: as §1

[5] = system: NIH3T3 cells expressing FGFR3TACC3-fusion (WT KD); details: AZD4547 compared with JNJ42756493
Procedure: as §1

[6] = system: cancer cell lines with the FGFR3 S249C substitution; details: some cancer cell lines with FGFR3 S249C; cited from earlier work

Compound	drug effect following introduction of FGFR3 V555M mutation [1]	drug response due to mutation corresponding to N540K in FGFR2 [2]	effect of variant on inhibitor efficacy in cells [3]	effect of variant on inhibitor efficacy in cells [4]	difference between AZD4547 and JNJ42756493 cellular IC50s [5]	viability and proliferation of cancer cell lines [6]
CCN(CC)CCCCNc1ncc2cc(-c3cc(OC)cc(OC)c3)c(NC(=O)NC(C)(C)C)nc2n1 [PD173074]	loss of efficacy	reduced sensitivity	–	–	–	–
AZD4547	–	–	reduce efficacy	reduce efficacy	2-3 fold	compromised
